Reference: PMC6509195 (mBio, 2019)

Tests used:
CsiD (PP_2909) [1] = target: T1, CsiD (PP_2909) (Pseudomonas putida, UniProt Q88IU0); test: LC-TOF / HPLC product analysis; format: biochemical; details: 2KG co-substrate, 25 μM FeSO4, ascorbate, DTT, 50 mM HEPES pH 7, 22°C, 3 h
T1 construct: gene glaH
T1 sequence (Q88IU0 1-325): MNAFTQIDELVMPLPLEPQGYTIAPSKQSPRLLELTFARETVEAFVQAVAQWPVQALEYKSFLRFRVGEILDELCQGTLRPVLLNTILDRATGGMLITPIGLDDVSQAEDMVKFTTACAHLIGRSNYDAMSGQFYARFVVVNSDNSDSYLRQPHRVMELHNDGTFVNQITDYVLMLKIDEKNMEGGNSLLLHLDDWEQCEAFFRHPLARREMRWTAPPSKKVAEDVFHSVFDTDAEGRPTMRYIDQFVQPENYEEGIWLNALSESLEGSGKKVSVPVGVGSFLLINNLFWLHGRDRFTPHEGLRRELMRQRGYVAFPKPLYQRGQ

[2] = target: T2, CsiD homolog from E. coli (Escherichia coli, UniProt P76621); test: LC-TOF product analysis; format: biochemical; details: 2KG co-substrate, FeSO4, HEPES pH 7, 22°C
T2 construct: gene glaH
T2 sequence (P76621 1-325): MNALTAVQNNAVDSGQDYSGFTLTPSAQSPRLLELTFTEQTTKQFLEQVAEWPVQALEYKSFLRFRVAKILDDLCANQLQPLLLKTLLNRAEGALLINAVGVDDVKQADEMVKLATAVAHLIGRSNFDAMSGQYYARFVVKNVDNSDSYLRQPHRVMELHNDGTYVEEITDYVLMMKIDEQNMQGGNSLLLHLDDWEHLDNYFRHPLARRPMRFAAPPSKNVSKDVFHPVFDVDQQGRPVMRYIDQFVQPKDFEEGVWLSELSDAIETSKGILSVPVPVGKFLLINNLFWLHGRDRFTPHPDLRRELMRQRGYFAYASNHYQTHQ

CsiD (PP_2909) [3] = target: T1, CsiD (PP_2909); test: LC-TOF detection of L-2HG; format: biochemical; details: 2-oxoacid co-substrate in place of 2KG; glutarate, FeSO4, HEPES pH 7, 22°C
[4] = target: T2, CsiD homolog from E. coli; test: LC-TOF detection of L-2HG; format: biochemical; details: 2-oxoacid co-substrate in place of 2KG; glutarate, FeSO4, HEPES pH 7, 22°C
PP_4108 = target: T3, PP_4108 (Pseudomonas putida, UniProt Q88FI7); test: colorimetric glutamate assay of transamination; format: biochemical; details: 2KG as amino acceptor, PLP, 50 mM HEPES pH 7.5, 30°C, 16 h
T3 sequence (Q88FI7 1-416): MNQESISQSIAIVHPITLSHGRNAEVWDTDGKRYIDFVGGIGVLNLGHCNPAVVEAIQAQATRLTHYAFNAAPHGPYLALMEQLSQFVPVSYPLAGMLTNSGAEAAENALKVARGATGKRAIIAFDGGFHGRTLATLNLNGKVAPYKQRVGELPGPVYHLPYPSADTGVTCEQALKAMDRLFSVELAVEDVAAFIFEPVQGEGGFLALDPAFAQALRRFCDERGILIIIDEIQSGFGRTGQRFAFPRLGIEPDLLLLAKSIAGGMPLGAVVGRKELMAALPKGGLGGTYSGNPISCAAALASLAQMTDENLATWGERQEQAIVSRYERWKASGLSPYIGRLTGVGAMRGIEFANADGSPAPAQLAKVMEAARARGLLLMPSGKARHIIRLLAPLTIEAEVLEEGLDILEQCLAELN

purified protein = substrate: O=C(O)CCCC(=O)C(=O)O; test: purified protein; format: biochemical, Pseudomonas putida; details: 100 mM Tris-HCl pH 7, 10 mM MgCl2, 50 μM FeCl2, Fe(II)-dependent

## O=C(O)CCCC(=O)O [glutarate]
CsiD (PP_2909) [1]
  LC-TOF / HPLC product analysis: purified csiD and confirmed that it hydroxylated glutarate in a 2KG-dependent manner
[2]
  LC-TOF product analysis: found that only glutarate served as a hydroxylation substrate

## O=C(O)CCCC(=O)C(=O)O [2-oxoadipate]
CsiD (PP_2909) [3]
  LC-TOF detection of L-2HG: all three CsiD homologs could utilize both 2OA and 2KG, but not oxaloacetate
[4]
  LC-TOF detection of L-2HG: all three CsiD homologs could utilize both 2OA and 2KG, but not oxaloacetate

## N[C@@H](CCCC(=O)O)C(=O)O [L-2-aminoadipate]
PP_4108
  relative activity: The enzyme was most active on L-2AA

B1: PP_5260 (Pseudomonas putida KT2440) (protein)
chain: MPANDFVSPDSIRAQFSAAMSLMYKQEVPLYGTLLELVSEINQQVMAQQPEVAEALRWTGEIERLDQERHGAIRVGTAEELATIARLFAVMGMQPVGYYDLSSAGVPVHSTAFRAVHEQSLHVSPFRVFTSLLRLELIDNPQLRELAQSILAKRQIFTSRALELIAQCEREGGLDAADAETFVQEALHTFRWHQDATVTAEQYQQLHDQHRLIADVVAFKGPHINHLTPRTLDIDAIQLGMPAKGIPPKAVVEGPPTRRHPILLRQTSFKALQETVAFRDQQGREGSHTARFGEIEQRGAALTPKGRQLYDKLLDATRVALGGAPAEANAERYMALLQANFAEFPDDLAQMREQGLAYFRYFATEKGLAARDQEGRPTTLQGLIDAGHVHFEALVYEDFLPVSAAGIFQSNLGDDAQAEYGSNANREAFEAALGLQVQDELALYAQSERRSLQACAQALNLGSM
Purified protein
  Km: 0.06 (± 0.03) mM
